*1 amine or outer side, *2 acyl side, *3 side chain or, on linkers, in order; H or OH if unused. Where a SMILES comes first, the peptide text is derived from it. Bridges are numbered along the chain shown (N, C = ends). Roman numbers before positions name the chains, in order. [ ]: non-standard residue; d: D form. The star is where a group is joined. ξ: configuration not given here. TATA = O=C(CC[*:1])N1CN(C(=O)CC[*:2])CN(C(=O)CC[*:3])C1; Dolaproine = CO[C@@H]([C@@H]1CCCN1)[C@@H](C)C(=O)O; X1 = CC[C@H](C)C(C(CC(=O)[*:2])OC)N(C)[*:1]; 1Nal = N[C@@H](Cc1cccc2ccccc12)C(=O)O; X3 = O=C(CCCC(=O)[*:2])NCCC(=O)[*:1]; PABC = O=C(OCc1ccc(N[*:1])cc1)[*:2]; Hyp = O=C(O)[C@@H]1C[C@@H](O)CN1; hArg = N=C(N)NCCCC[C@H](N)C(=O)O; Cit = NC(=O)NCCC[C@H](N)C(=O)O; X2 = CC(N*)[C@@H](O)c1ccccc1; ξNMeV = CNC(C(=O)O)C(C)C; ξV = CC(C)C(N)C(=O)O; Sar = CNCC(=O)O
Legend:
[1] = tested on: NCI-H526 xenograft; assay: Example 9.6: in vivo efficacy in NCI-H526 xenograft in Balb/c nude mice; conditions: for Tumor volume: iv
Description: The major endpoint was to see if the tumor growth could be delayed or mice could be cured. Tumor volume was measured three times weekly in two dimensions using a caliper, and the volume was expressed in mm^3 using the formula: V=0.5 a×b^2 where a and b are the long and short diameters of the tumor, respectively. The tumor size was then used for calculations of T/C value. The T/C value (in percent) is an indication of antitumor effectiveness; T and C are the mean volumes of the treated and control groups, respectively, on a given day. TGI was calculated for each group using the formula: TGI (%)=[1−(Ti−T0)/(Vi−V0)]×100; Ti is the average tumor volume of a treatment group on a given day, T0 is the average tumor volume of the treatment group on the day of treatment start, Vi is the average tumor volume of the vehicle control group on the same day with Ti, and V0 is the average tumor volume of the vehicle group on the day of treatment start.
A one-way ANOVA was performed to compare tumor volume among groups, and when a significant F-statistics (a ratio of treatment variance to the error variance) was obtained, comparisons between groups were carried out with Games-Howell test. All data were analyzed using GraphPad Prism 5.0. P<0.05 was considered to be statistically significant.
• Species: Mus Musculus • Strain: Balb/c nude • Age: 6-8 weeks • Sex: female • Body weight: 18-22 g • Number of animals: 21 mice plus spare 3.1.2.
The NCI-H526 cells were maintained in medium supplemented with 10% heat inactivated fetal bovine serum at 37° C. in an atmosphere of 5% CO2 in air. The tumor cells were routinely subcultured twice weekly. The cells growing in an exponential growth phase were harvested and counted for tumor inoculation.
Each mouse was inoculated subcutaneously at the right flank with NCI-H526 tumor cells (5.0×10^6 in 0.2 ml of PBS for tumor development. 21 animals were randomized when the average tumor volume reached 181 mm^3. The test article administration and the animal numbers in each group were shown in the experimental design table.
Tumor growth inhibition rate for test articles in the NCI-H526 xenograft model was calculated based on tumor volume measurements at day 14 after the start of the treatment.

[2] = tested on: Panc2.13 xenograft; assay: Example 3: in vivo efficacy in Panc2.13 xenograft (pancreatic cancer model) in Balb/c nude mice; design: species or system Mus Musculus

Structure (SMILES): CC[C@H](C)C(C(CC(=O)N1CCC[C@H]1[C@H](OC)[C@@H](C)C(=O)NC(C)[C@@H](O)c1ccccc1)OC)N(C)C(=O)[C@@H](NC(=O)C(C(C)C)N(C)C(=O)OCc1ccc(NC(=O)[C@H](CCCNC(N)=O)NC(=O)C(NC(=O)CCCC(=O)NCCC(=O)N(C)CC(=O)N(C)CC(=O)N(C)CC(=O)N(C)CC(=O)N(C)CC(=O)N(C)CC(=O)N(C)CC(=O)N(C)CC(=O)N(C)CC(=O)N(C)CC(=O)N[C@H]2CSCCC(=O)N3CN4CN(C3)C(=O)CCSC[C@H](NC(=O)[C@@H](CC(=O)O)NC(=O)[C@H](Cc3cccc5ccccc35)NC(=O)[C@@H]3CCCN3C2=O)C(=O)N[C@@H](CCSC)C(=O)N[C@@H](CCCCNC(=N)N)C(=O)N[C@@H](CC(=O)O)C(=O)N[C@@H](Cc2c[nH]c3ccccc23)C(=O)N[C@@H](CO)C(=O)N[C@@H]([C@@H](C)O)C(=O)N2CCC[C@H]2C(=O)N2C[C@H](O)C[C@H]2C(=O)N[C@@H](Cc2c[nH]c3ccccc23)C(=O)N[C@H](C(N)=O)CSCCC4=O)C(C)C)cc1)C(C)C (stereo partly drawn) [BCY8245, MMAE-PABC-Cit-Val-Glutaryl-BCY8234] (I: [Sar][Sar][Sar][Sar][Sar][Sar][Sar][Sar][Sar][Sar]CP[1Nal][dD]CM[hArg]DWSTP[Hyp]WC-NH2 / II: [ξV][Cit][PABC][ξNMeV]V[X1][Dolaproine]-X2; linker I:11-I:15-I:25 via TATA; linker I:N-II:N via X3)
- TGI ([1]; 3 mg/kg biw, day 14): 21.6%
- Tumor volume (TV) ([1]; 3 mg/kg biw, day 14): 1109 mm^3
- TGI ([1]; 3 mg/kg qw, day 14): 13.4%
- Tumor volume (TV) ([1]; 3 mg/kg qw, day 14): 1205 mm^3
- animal bodyweight loss ([1]; 5 mg/kg biw): over 10%
- TGI ([1]; 5 mg/kg qw, day 14): 75.0%
- Tumor volume (TV) ([1]; 5 mg/kg qw, day 14): 476 mm^3
- Tumor volume ([1]; 3 mpk, biw, day 0 after the start of treatment): 182 mm^3
- Tumor volume ([1]; 3 mpk, biw, day 2): 232 mm^3
- Tumor volume ([1]; 3 mpk, biw, day 4): 308 mm^3
- Tumor volume ([1]; 3 mpk, biw, day 7): 440 mm^3
- Tumor volume ([1]; 3 mpk, biw, day 9): 530 mm^3
- Tumor volume ([1]; 3 mpk, biw, day 12): 810 mm^3
- Tumor volume ([1]; 3 mpk, biw, day 14): 1109 mm^3
- T/C ([1]; 3 mpk, biw, day 14): 81.3%
- TGI ([1]; 3 mpk, biw, day 14): 21.6%
- Tumor Volume (Mean ± SEM) ([1]; 3 mpk, biw, day 14): 1109 ± 250 mm^3
- Tumor volume ([1]; 3 mpk, qw, day 0 after the start of treatment): 180 mm^3
- Tumor volume ([1]; 3 mpk, qw, day 2): 256 mm^3
- Tumor volume ([1]; 3 mpk, qw, day 4): 403 mm^3
- Tumor volume ([1]; 3 mpk, qw, day 7): 545 mm^3
- Tumor volume ([1]; 3 mpk, qw, day 9): 657 mm^3
- Tumor volume ([1]; 3 mpk, qw, day 12): 1019 mm^3
- Tumor volume ([1]; 3 mpk, qw, day 14): 1205 mm^3
- T/C ([1]; 3 mpk, qw, day 14): 88.3%
- TGI ([1]; 3 mpk, qw, day 14): 13.4%
- Tumor Volume (Mean ± SEM) ([1]; 3 mpk, qw, day 14): 1205 ± 79 mm^3
- Tumor volume ([1]; 5 mpk, qw, day 0 after the start of treatment): 180 mm^3
- Tumor volume ([1]; 5 mpk, qw, day 2): 209 mm^3
- Tumor volume ([1]; 5 mpk, qw, day 4): 236 mm^3
- Tumor volume ([1]; 5 mpk, qw, day 7): 383 mm^3
- Tumor volume ([1]; 5 mpk, qw, day 9): 375 mm^3
- Tumor volume ([1]; 5 mpk, qw, day 12): 365 mm^3
- Tumor volume ([1]; 5 mpk, qw, day 14): 476 mm^3
- T/C ([1]; 5 mpk, qw, day 14): 34.9%
- TGI ([1]; 5 mpk, qw, day 14): 75.0%
- Tumor Volume (Mean ± SEM) ([1]; 5 mpk, qw, day 14): 476 ± 103 mm^3
- tumor response (in words) ([1]; mouse, in vivo): tumor growth is restrained by BCY8245 but the tumor does not undergo regression
- TGI ([2]; 3 mg/kg biw, day 14): 79.1%
- Tumor volume (TV) ([2]; 3 mg/kg biw, day 14): 231 mm^3
- TGI ([2]; 3 mg/kg qw, day 14): 69.2%
- Tumor volume (TV) ([2]; 3 mg/kg qw, day 14): 271 mm^3
- TGI ([2]; 5 mg/kg qw, day 14): 77.5%
- Tumor volume (TV) ([2]; 5 mg/kg qw, day 14): 238 mm^3
- Tumor volume ([2]; 3 mpk, biw, iv, day 0 after start of treatment): 148 ± 46 mm^3
- Tumor volume ([2]; 3 mpk, biw, iv, day 2): 170 ± 38 mm^3
- Tumor volume ([2]; 3 mpk, biw, iv, day 4): 204 ± 57 mm^3
- Tumor volume ([2]; 3 mpk, biw, iv, day 7): 216 ± 56 mm^3
- Tumor volume ([2]; 3 mpk, biw, iv, day 9): 236 ± 59 mm^3
- Tumor volume ([2]; 3 mpk, biw, iv, day 11): 241 ± 60 mm^3
- Tumor volume ([2]; 3 mpk, biw, iv, day 14): 231 ± 57 mm^3
- T/C ([2]; 3 mpk, biw, day 14): 42.3%
- TGI ([2]; 3 mpk, biw, day 14): 79.1%
- Tumor volume ([2]; 3 mpk, biw, day 14, Mean ± SEM (Table 19)): 231 ± 57 mm^3
- Tumor volume ([2]; 3 mpk, qw, iv, day 0 after start of treatment): 149 ± 34 mm^3
- Tumor volume ([2]; 3 mpk, qw, iv, day 2): 160 ± 33 mm^3
- Tumor volume ([2]; 3 mpk, qw, iv, day 4): 191 ± 39 mm^3
- Tumor volume ([2]; 3 mpk, qw, iv, day 7): 215 ± 53 mm^3
- Tumor volume ([2]; 3 mpk, qw, iv, day 9): 242 ± 62 mm^3
- Tumor volume ([2]; 3 mpk, qw, iv, day 11): 259 ± 59 mm^3
- Tumor volume ([2]; 3 mpk, qw, iv, day 14): 271 ± 54 mm^3
- T/C ([2]; 3 mpk, qw, day 14): 49.6%
- TGI ([2]; 3 mpk, qw, day 14): 69.2%
- Tumor volume ([2]; 3 mpk, qw, day 14, Mean ± SEM (Table 19)): 271 ± 54 mm^3
- Tumor volume ([2]; 5 mpk, qw, iv, day 0 after start of treatment): 149 ± 18 mm^3
- Tumor volume ([2]; 5 mpk, qw, iv, day 2): 180 ± 11 mm^3

Source: patent publication US12459974B2, “Bicyclic peptide ligands specific for Nectin-4” (priority 2018, dated 2025)
